Values after ≈ are worked out from the molar mass of the structure shown. Values joined by “and” are separate entries in the source; they are usually repeats but may differ in a detail not shown here. Equal entries are not always repeated. One block for each compound: values may come before it.
Tests used:
Assay in all cases: ≥ marks a high value that may be exact or a test limit, other limits are often not marked, values filed in µg/mL are converted to µM
[1] = test system: Staphylococcus aureus ATCC 9144
[2] = test system: Corynebacterium glutamicum ATCC 13032
[3] = test system: Candida albicans ATCC 10231
[4] = test system: Escherichia coli ATCC 25922
Aureobasidium pullulans = test system: Aureobasidium pullulans
[5] = test system: Pseudomonas aeruginosa ATCC 27853
[6] = test system: Staphylococcus epidermidis KCTC 1917
[7] = test system: Escherichia coli KCTC 1682
[8] = test system: Salmonella typhimurium KCTC 1926
[9] = test system: Bacillus subtilis KCTC 3068
[10] = test system: Staphylococcus aureus KCTC 1621
[11] = test system: Staphylococcus aureus CCARM 3090
[12] = test system: Enterococcus faecium ATCC 51559
[13] = test system: Pseudomonas aeruginosa KCTC 1637
[14] = test system: Pseudomonas aeruginosa CCARM 2109
[15] = test system: Staphylococcus aureus CCARM 3095
[16] = test system: Pseudomonas aeruginosa CCARM 2095
[17] = test system: Staphylococcus aureus CCARM 3089
[18] = test system: Bacillus cereus CGMCC 1.932
Escherichia coli 078 = test system: Escherichia coli 078
Acinetobacter baumannii = test system: Acinetobacter baumannii
[19] = test system: Salmonella enterica subsp. enterica serovar Pullorum ATCC 7913
[20] = test system: Staphylococcus aureus ATCC 43300
[21] = test system: Listeria monocytogenes CGMCC 1.1075
[22] = test system: Pseudomonas aeruginosa PAO1
[23] = test system: Salmonella typhimurium ATCC 7731
[24] = test system: Enterococcus faecalis ATCC 29212
[25] = test system: Staphylococcus epidermidis ATCC 12228
[26] = test system: Salmonella enterica subsp. enterica serovar Typhimurium ATCC 14028
Escherichia coli UB1005 = test system: Escherichia coli UB1005
[27] = test system: Staphylococcus aureus ATCC 25923
[28] = test system: Bacillus subtilis CMCC 63501
Escherichia coli K88 = test system: Escherichia coli K88
Escherichia coli K99 = test system: Escherichia coli K99
[29] = test system: Staphylococcus aureus ATCC 29213
[30] = test system: Escherichia coli CVCC 1515

MIC [1]: ≥ 100 µM | MIC [2]: 1.6 µM (≈ 2.42 µg/mL) | MIC [3]: 25 µM (≈ 37.8 µg/mL) | MIC [4]: 12.5 µM (≈ 18.9 µg/mL) | MIC (Aureobasidium pullulans): ≥ 50 µM | MIC [5]: 6.3 µM (≈ 9.54 µg/mL)
SMILES: CC(C)[C@H](NC(=O)[C@@H](NC(=O)[C@H](CCCN=C(N)N)NC(=O)[C@H](CCCN=C(N)N)NC(=O)[C@H](Cc1c[nH]c2ccccc12)NC(=O)[C@H](Cc1c[nH]c2ccccc12)NC(=O)CN)[C@@H](C)O)C(=O)N[C@@H](C)C(=O)N[C@@H](CCCCN)C(=O)N[C@@H](C)C(=O)N[C@@H](CCCN=C(N)N)C(=O)N[C@@H](CCCCN)C(N)=O [GWWRRTVAKARK]

MIC [6]: 12.5 µM (≈ 31 µg/mL) | MIC [7]: 12.5 µM (≈ 31 µg/mL) | MIC [8]: 12.5 µM (≈ 31 µg/mL) | MIC [9]: 12.5 µM (≈ 31 µg/mL) | MIC [10]: 12.5 µM (≈ 31 µg/mL) | MIC [11]: 25 µM (≈ 62 µg/mL) | MIC [12]: 25 µM (≈ 62 µg/mL) | MIC [13]: 12.5 µM (≈ 31 µg/mL) | MIC [15]: 12.5 µM (≈ 31 µg/mL) | MIC [16]: ≥ 50 µM | MIC [17]: 12.5 µM (≈ 31 µg/mL)
SMILES: CC[C@H](C)[C@@H]1NC(=O)[C@H]([C@@H](C)O)NC(=O)[C@H](Cc2cnc[nH]2)NC(=O)[C@H](CCCN=C(N)N)NC(=O)[C@H](C)NC(=O)[C@H](CCCN=C(N)N)NC(=O)[C@H](CC(C)C)NC(=O)[C@H](CO)NC(=O)[C@H](C)NC(=O)[C@@H](NC(=O)[C@H](CC(C)C)NC(=O)[C@@H](N)CC(N)=O)CSSC[C@@H](C(=O)N[C@@H](CCCN=C(N)N)C(=O)N[C@@H](CCCCN)C(=O)N[C@@H](Cc2ccccc2)C(=O)NCC(=O)N[C@@H](CCCN=C(N)N)C(=O)N[C@@H](CCCN=C(N)N)C(=O)O)NC(=O)[C@H](CCC(N)=O)NC(=O)[C@@H]2CCCN2C1=O [NLCASLRARHTIPQCRKFGRR]

MIC [1]: ≥ 100 µM | MIC [2]: 3.1 µM (≈ 4.42 µg/mL) | MIC [3]: 50 µM (≈ 71.3 µg/mL) | MIC [4]: 50 µM (≈ 71.3 µg/mL) | MIC (Aureobasidium pullulans): ≥ 50 µM | MIC [5]: 200 µM (≈ 285 µg/mL)
SMILES: CC(C)[C@H](NC(=O)[C@H](CCCCN)NC(=O)[C@H](C)NC(=O)[C@@H](NC(=O)[C@@H](NC(=O)[C@H](CCCN=C(N)N)NC(=O)[C@H](CCCN=C(N)N)NC(=O)[C@H](Cc1c[nH]c2ccccc12)NC(=O)[C@H](C)NC(=O)CN)[C@@H](C)O)C(C)C)C(=O)N[C@@H](CCCN=C(N)N)C(=O)N[C@@H](CCCCN)C(N)=O [GAWRRTVAKVRK]

Second part, the compound before the results:

SMILES: CC[C@H](C)[C@H](NC(=O)[C@H](C)NC(=O)[C@H](CCCN=C(N)N)NC(=O)[C@H](Cc1ccc(O)cc1)NC(=O)[C@H](CC(C)C)NC(=O)[C@H](CCCCN)NC(=O)[C@H](Cc1ccc(O)cc1)NC(=O)CNC(=O)[C@H](C)NC(=O)[C@H](CCCN=C(N)N)NC(=O)[C@@H](NC(=O)[C@H](Cc1c[nH]c2ccccc12)NC(=O)[C@H](CCCN=C(N)N)NC(=O)[C@@H](NC(=O)[C@@H](NC(=O)[C@@H](N)CC(C)C)C(C)C)[C@@H](C)CC)C(C)C)C(=O)N[C@@H](CCCCN)C(=O)N[C@@H](CCCCN)C(=O)N[C@@H](CCCCN)C(N)=O [LVIRWVRAGYKLYRAIKKK]
MIC [6]: 4 µM (≈ 9.44 µg/mL) | MIC [7]: 4 µM and 8 µM | MIC [8]: 2 µM (≈ 4.72 µg/mL) | MIC [9]: 2 µM (≈ 4.72 µg/mL) | MIC [10]: 2 µM and 4 µM | MIC [11]: 2 µM (≈ 4.72 µg/mL) | MIC [12]: 4 µM (≈ 9.44 µg/mL) | MIC [13]: 8 µM (≈ 18.9 µg/mL) | MIC [14]: 4 µM (≈ 9.44 µg/mL) | MIC [15]: 2 µM (≈ 4.72 µg/mL) | MIC [16]: 2 µM (≈ 4.72 µg/mL) | MIC [17]: 4 µM (≈ 9.44 µg/mL)

SMILES: C[C@H](NC(=O)[C@H](CCCN=C(N)N)NC(=O)[C@H](Cc1c[nH]c2ccccc12)NC(=O)[C@H](CCCN=C(N)N)NC(=O)[C@H](Cc1c[nH]c2ccccc12)NC(=O)[C@H](Cc1c[nH]c2ccccc12)NC(=O)[C@H](Cc1c[nH]c2ccccc12)NC(=O)[C@H](CCCN=C(N)N)NC(=O)[C@H](Cc1c[nH]c2ccccc12)NC(=O)[C@H](CCCN=C(N)N)NC(=O)[C@@H](N)CO)C(N)=O [SRWRWWWRWRA]
MIC [18]: 4 µM (≈ 6.92 µg/mL) | MIC (Escherichia coli 078): 2 µM (≈ 3.46 µg/mL) | MIC (Acinetobacter baumannii): 2 µM (≈ 3.46 µg/mL) | MIC [19]: 0.5 µM (≈ 0.866 µg/mL) | MIC [20]: 2 µM (≈ 3.46 µg/mL) | MIC [21]: 2 µM (≈ 3.46 µg/mL) | MIC [22]: 4 µM (≈ 6.92 µg/mL) | MIC [23]: 4 µM (≈ 6.92 µg/mL) | MIC [24]: 4 µM (≈ 6.92 µg/mL) | MIC [25]: 0.5 µM (≈ 0.866 µg/mL) | MIC [26]: 2 µM (≈ 3.46 µg/mL) | MIC (Escherichia coli UB1005): 1 µM (≈ 1.73 µg/mL) | MIC [27]: 1 µM (≈ 1.73 µg/mL) | MIC [28]: 8 µM (≈ 13.8 µg/mL) | MIC (Escherichia coli K88): 4 µM (≈ 6.92 µg/mL) | MIC (Escherichia coli K99): 1 µM (≈ 1.73 µg/mL) | MIC [5]: 2 µM (≈ 3.46 µg/mL)

SMILES: C[C@H](NC(=O)[C@H](CCCN=C(N)N)NC(=O)[C@H](Cc1c[nH]c2ccccc12)NC(=O)[C@H](CCCN=C(N)N)NC(=O)[C@H](Cc1c[nH]c2ccccc12)NC(=O)[C@H](Cc1c[nH]c2ccccc12)NC(=O)[C@H](Cc1c[nH]c2ccccc12)NC(=O)[C@H](CCCN=C(N)N)NC(=O)[C@H](Cc1c[nH]c2ccccc12)NC(=O)[C@H](CCCN=C(N)N)NC(=O)[C@@H](N)[C@@H](C)O)C(N)=O [TRWRWWWRWRA]
MIC [18]: 8 µM (≈ 14 µg/mL) | MIC (Escherichia coli 078): 2 µM (≈ 3.49 µg/mL) | MIC (Acinetobacter baumannii): 2 µM (≈ 3.49 µg/mL) | MIC [19]: 1 µM (≈ 1.75 µg/mL) | MIC [20]: 2 µM (≈ 3.49 µg/mL) | MIC [21]: 1 µM (≈ 1.75 µg/mL) | MIC [22]: 16 µM (≈ 27.9 µg/mL) | MIC [23]: 2 µM (≈ 3.49 µg/mL) | MIC [24]: 4 µM (≈ 6.98 µg/mL) | MIC [25]: 1 µM (≈ 1.75 µg/mL) | MIC [26]: 1 µM (≈ 1.75 µg/mL) | MIC (Escherichia coli UB1005): 1 µM (≈ 1.75 µg/mL) | MIC [27]: 1 µM (≈ 1.75 µg/mL) | MIC [28]: 16 µM (≈ 27.9 µg/mL) | MIC (Escherichia coli K88): 2 µM (≈ 3.49 µg/mL) | MIC (Escherichia coli K99): 2 µM (≈ 3.49 µg/mL) | MIC [5]: 2 µM (≈ 3.49 µg/mL)

SMILES: CC(C)C[C@H](NC(=O)[C@H](CCCCN)NC(=O)[C@H](C)NC(=O)[C@H](C)NC(=O)[C@H](C)NC(=O)[C@H](CCCCN)NC(=O)[C@H](C)NC(=O)[C@H](C)NC(=O)[C@H](C)NC(=O)[C@H](CCCCN)NC(=O)[C@H](Cc1c[nH]c2ccccc12)NC(=O)[C@@H](N)CC(C)C)C(=O)N[C@@H](Cc1c[nH]c2ccccc12)C(N)=O [LWKAAAKAAAKLW]
MIC [29]: 8 µM (≈ 11.4 µg/mL) | MIC [30]: 8 µM (≈ 11.4 µg/mL) | MIC [25]: 8 µM (≈ 11.4 µg/mL) | MIC [26]: 32 µM (≈ 45.7 µg/mL) | MIC (Escherichia coli UB1005): 8 µM (≈ 11.4 µg/mL) | MIC [4]: 4 µM (≈ 5.71 µg/mL) | MIC (Escherichia coli K88): 4 µM (≈ 5.71 µg/mL) | MIC [5]: 8 µM (≈ 11.4 µg/mL)

Source: DBAASP
